Test results from EP1179050B1, “METHOD FOR THE PURIFICATION OF PROTEIN KINASE BY AFFINITY CHROMATOGRAPHY” (University of Tartu, priority 1999, dated 2000).
Where two headings read alike, the source gives them in different places. *1 amine or outer side, *2 acyl side, *3 side chain or, on linkers, in order; H or OH if unused. Where a SMILES comes first, the peptide text is derived from it. [ ]: non-standard residue; d: D form. The star is where a group is joined. Adenosine(5'-uronoyl) = Nc1ncnc2c1ncn2[C@@H]1O[C@H](C(=O)*)[C@@H](O)[C@H]1O; X1 = Nc1ncnc2c1ncn2[C@@H]1O[C@H](C(=O)NC[C@H](N)C(=O)*)[C@@H](O)[C@H]1O; βAsp = O=C(O)[C@H](CC(=O)[*:2])N[*:1]; Dap = NC[C@H](N)C(=O)O

Key:
PKA = PKA (Mus musculus, UniProt P05132); details: literature values; read-out: Kd (affinity to PKA); cited from earlier work
Protein Kinase A [1] = target: T1, Protein Kinase A (Mus musculus, UniProt P05132); experiment: Inhibition constant for PKA (Table 3); assay type: biochemical
Protein Kinase A [2] = target: T1, Protein Kinase A; experiment: Inhibition constant for PKA (Table 3); assay type: biochemical; remark: listed apart in the source
Protein Kinase C = experiment: Inhibition constant for PKC (Table 3); assay type: biochemical
protein kinase CK2 = protein kinase CK2 (Rattus norvegicus, UniProt P19139); experiment: Protein kinase CK2 activity inhibition, casein substrate, [γ-32P]ATP phosphocellulose paper assay; assay type: biochemical; details: 30°C, pH 7.5, 1 mg/mL casein, 30 µM [γ-32P] ATP; n. i. means no inhibition at 100 µM concentration of ligand
[3] = target: catalytic subunit of murine PKA (Mus musculus, UniProt P05132); experiment: Protein kinase A (PKA) activity inhibition, [γ-32P]ATP phosphocellulose paper assay; assay type: biochemical
protein kinase CK1 = experiment: Protein kinase CK1 activity inhibition, casein substrate, [γ-32P]ATP phosphocellulose paper assay; assay type: biochemical, rat; details: 30°C, pH 7.5, 1 mg/mL casein, 30 µM [γ-32P] ATP
[4] = target: Ca^2+-dependent protein kinase (CDPK-1); experiment: Ca2+-dependent protein kinase (CDPK-1) activity inhibition, [γ-32P]ATP phosphocellulose paper assay; assay type: biochemical, maize; details: 30°C, pH 7.5, 50 µM substrate peptide, 30 µM [γ-32P]ATP
[5] = target: Protein kinase C β isoform (PKC); experiment: Protein kinase C β (PKC) activity inhibition, [γ-32P]ATP phosphocellulose paper assay; assay type: biochemical, pig; details: 30°C, pH 7.5, 15 µM substrate peptide, 30 µM [γ-32P] ATP

Chain of protein kinase CK2 (P19139 whole entry): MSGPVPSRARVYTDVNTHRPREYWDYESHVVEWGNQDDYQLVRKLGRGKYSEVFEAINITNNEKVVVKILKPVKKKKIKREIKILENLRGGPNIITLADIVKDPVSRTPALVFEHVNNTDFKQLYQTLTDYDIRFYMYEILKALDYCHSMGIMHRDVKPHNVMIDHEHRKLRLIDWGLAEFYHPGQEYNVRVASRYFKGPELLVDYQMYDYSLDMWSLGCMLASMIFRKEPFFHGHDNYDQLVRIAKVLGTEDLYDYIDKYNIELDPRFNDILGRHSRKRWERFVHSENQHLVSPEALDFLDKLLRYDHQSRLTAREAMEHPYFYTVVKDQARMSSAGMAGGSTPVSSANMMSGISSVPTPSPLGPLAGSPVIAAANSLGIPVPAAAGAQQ

SMILES: Nc1ncnc2c1ncn2[C@@H]1O[C@H](COP(=O)(O)OP(=O)(O)OP(=O)(O)O)[C@@H](O)[C@H]1O [ATP, adenosine triphosphate]
- Kd (PKA): 25 µM

SMILES: CC(=O)NCCCCCC(=O)N[C@@H](CCCN=C(N)N)C(=O)N[C@@H](CCCNC(=N)N)C(=O)N[C@@H](CCCNC(=N)N)C(=O)N[C@@H](CCCNC(=N)N)C(=O)N[C@@H](CCCNC(=N)N)C(=O)N[C@@H](CCCN=C(N)N)C(=O)O [Ac(amino-hexanoic acid)Arg6, Ac(Ahx)Arg6]
- Ki (Protein Kinase A [1]): 27900 nM

SMILES: Nc1ncnc2c1ncn2[C@@H]1O[C@H](CO)[C@@H](O)[C@H]1O [Adenosine]
- Ki (Protein Kinase A [2]): 43100 nM
- Ki (Protein Kinase C): 43200 nM

SMILES: NC(N)=NCCC[C@H](NC(=O)[C@H](CCCN=C(N)N)NC(=O)[C@H](CCCN=C(N)N)NC(=O)[C@H](CCCN=C(N)N)NC(=O)[C@H](CCCN=C(N)N)NC(=O)[C@@H](N)CCCN=C(N)N)C(=O)O [Arg6]
- Ki (Protein Kinase A [1]): 29500 nM

SMILES: C[C@H](NC(=O)CCNC(=O)CCNC(=O)[C@H]1O[C@@H](n2cnc3c(N)ncnc32)[C@H](O)[C@@H]1O)C(=O)N[C@@H](CCCNC(=N)N)C(=O)N[C@@H](CCCNC(=N)N)C(=O)N[C@@H](CCCNC(=N)N)C(=O)N[C@@H](CCCNC(=N)N)C(=O)N[C@@H](CCCNC(=N)N)C(=O)N[C@@H](CCCNC(=N)N)C(=O)O [Inhibitor I, AdoC(β-Ala )2AlaArg6]
- IC50 (protein kinase CK2): > 30 µM
- IC50 [3]: 4.3 ± 0.3 µM

SMILES: C[C@H](NC(=O)[C@@H](N)CNC(=O)[C@@H](N)CNC(=O)[C@H]1O[C@@H](n2cnc3c(N)ncnc32)[C@H](O)[C@@H]1O)C(=O)N[C@@H](CCCNC(=N)N)C(=O)N[C@@H](CCCNC(=N)N)C(=O)N[C@@H](CCCNC(=N)N)C(=O)N[C@@H](CCCNC(=N)N)C(=O)N[C@@H](CCCNC(=N)N)C(=O)N[C@@H](CCCNC(=N)N)C(=O)O [Inhibitor II, AdoC(Dpr)2AlaArg6] (H-[Dap](X1)ARRRRRR-OH; C-terminus assumed)
- IC50 (protein kinase CK1): 5.6 ± 0.4 µM
- IC50 [4]: 31 ± 3 µM

SMILES: C[C@H](NC(=O)C[C@H](NC(=O)C[C@H](NC(=O)[C@H]1O[C@@H](n2cnc3c(N)ncnc32)[C@H](O)[C@@H]1O)C(=O)O)C(=O)O)C(=O)N[C@@H](CCCNC(=N)N)C(=O)N[C@@H](CCCNC(=N)N)C(=O)N[C@@H](CCCNC(=N)N)C(=O)N[C@@H](CCCNC(=N)N)C(=O)N[C@@H](CCCNC(=N)N)C(=O)N[C@@H](CCCNC(=N)N)C(=O)O [Inhibitor III, AdoC(β-Asp)2AlaArg6] ({Adenosine(5'-uronoyl)-βAsp-βAsp}-ARRRRRR-OH; C-terminus assumed)
- IC50 (protein kinase CK1): > 30 µM
- IC50 [5]: 27 ± 2 µM
- IC50 [4]: > 50 µM

SMILES: N=C(N)NCCC[C@H](NC(=O)[C@H](CCCNC(=N)N)NC(=O)[C@H](CCCNC(=N)N)NC(=O)[C@H](CCCNC(=N)N)NC(=O)[C@H](CCCNC(=N)N)NC(=O)[C@H](CCCNC(=N)N)NC(=O)CNC(=O)[C@H]1O[C@@H](n2cnc3c(N)ncnc32)[C@H](O)[C@@H]1O)C(=O)O [Inhibitor IV, AdoCGlyArg6]
- IC50 (protein kinase CK2): > 30 µM
- IC50 [3]: 4 ± 0.2 µM

SMILES: N=C(N)NCCC[C@H](NC(=O)[C@H](CCCNC(=N)N)NC(=O)[C@H](CCCNC(=N)N)NC(=O)[C@H](CCCNC(=N)N)NC(=O)[C@H](CCCNC(=N)N)NC(=O)[C@H](CCCNC(=N)N)NC(=O)CCCCCCCCCCNC(=O)[C@H]1O[C@@H](n2cnc3c(N)ncnc32)[C@H](O)[C@@H]1O)C(=O)O [Inhibitor IX, AdoC(Aun)Arg6]
- IC50 (µM) CK2 (protein kinase CK2): n. i.^f)

SMILES: N=C(N)NCCC[C@H](NC(=O)[C@H](CCCNC(=N)N)NC(=O)[C@H](CCCNC(=N)N)NC(=O)[C@H](CCCNC(=N)N)NC(=O)[C@H](CCCNC(=N)N)NC(=O)[C@H](CCCNC(=N)N)NC(=O)CCNC(=O)[C@H]1O[C@@H](n2cnc3c(N)ncnc32)[C@H](O)[C@@H]1O)C(=O)O [Inhibitor V, AdoC(β-Ala)Arg6]
- IC50 (µM) CK2 (protein kinase CK2): n. i.^f)
- IC50 [3]: 1.8 ± 0.1 µM

SMILES: N=C(N)NCCC[C@H](NC(=O)[C@H](CCCNC(=N)N)NC(=O)[C@H](CCCNC(=N)N)NC(=O)[C@H](CCCNC(=N)N)NC(=O)[C@H](CCCNC(=N)N)NC(=O)[C@H](CCCNC(=N)N)NC(=O)CCCNC(=O)[C@H]1O[C@@H](n2cnc3c(N)ncnc32)[C@H](O)[C@@H]1O)C(=O)O [Inhibitor VI, AdoC(GABA)Arg6]
- IC50 (protein kinase CK2): > 30 µM
- IC50 [3]: 1.3 ± 0.2 µM

SMILES: N=C(N)NCCC[C@H](NC(=O)[C@H](CCCNC(=N)N)NC(=O)[C@H](CCCNC(=N)N)NC(=O)[C@H](CCCNC(=N)N)NC(=O)[C@H](CCCNC(=N)N)NC(=O)[C@H](CCCNC(=N)N)NC(=O)CCCCCNC(=O)[C@H]1O[C@@H](n2cnc3c(N)ncnc32)[C@H](O)[C@@H]1O)C(=O)O [Inhibitor VII, AdoC(Ahx)Arg6]
- IC50 (protein kinase CK2): > 30 µM
- Ki (Protein Kinase A [1]): 40.1 nM
- IC50 [3]: 0.12 ± 0.02 µM

SMILES: N=C(N)NCCC[C@H](NC(=O)[C@H](CCCNC(=N)N)NC(=O)[C@H](CCCNC(=N)N)NC(=O)[C@H](CCCNC(=N)N)NC(=O)[C@H](CCCNC(=N)N)NC(=O)[C@H](CCCNC(=N)N)NC(=O)CCCCCCCNC(=O)[C@H]1O[C@@H](n2cnc3c(N)ncnc32)[C@H](O)[C@@H]1O)C(=O)O [Inhibitor VIII, AdoC(Aoc)Arg6]
- IC50 (protein kinase CK2): > 30 µM
- IC50 [3]: 0.24 ± 0.02 µM

SMILES: Nc1ncnc2nc[nH]c12 [adenine]
- Kd (PKA): 30 µM
